For the assay, the target named is T1, rat NPRA (Rattus norvegicus, UniProt P18910).
T1 construct: Full-Length cDNA Cloning and Generation of Cell Lines Overexpressing Natriuretic Peptide Receptors (NPRs); expressed in transfected cells; host or cells: Jump-in T-Rex HEK293 cells, pJTI R4 CMV-TO MCS pA vector, tetracycline induction
T1 sequence (P18910 29-1057): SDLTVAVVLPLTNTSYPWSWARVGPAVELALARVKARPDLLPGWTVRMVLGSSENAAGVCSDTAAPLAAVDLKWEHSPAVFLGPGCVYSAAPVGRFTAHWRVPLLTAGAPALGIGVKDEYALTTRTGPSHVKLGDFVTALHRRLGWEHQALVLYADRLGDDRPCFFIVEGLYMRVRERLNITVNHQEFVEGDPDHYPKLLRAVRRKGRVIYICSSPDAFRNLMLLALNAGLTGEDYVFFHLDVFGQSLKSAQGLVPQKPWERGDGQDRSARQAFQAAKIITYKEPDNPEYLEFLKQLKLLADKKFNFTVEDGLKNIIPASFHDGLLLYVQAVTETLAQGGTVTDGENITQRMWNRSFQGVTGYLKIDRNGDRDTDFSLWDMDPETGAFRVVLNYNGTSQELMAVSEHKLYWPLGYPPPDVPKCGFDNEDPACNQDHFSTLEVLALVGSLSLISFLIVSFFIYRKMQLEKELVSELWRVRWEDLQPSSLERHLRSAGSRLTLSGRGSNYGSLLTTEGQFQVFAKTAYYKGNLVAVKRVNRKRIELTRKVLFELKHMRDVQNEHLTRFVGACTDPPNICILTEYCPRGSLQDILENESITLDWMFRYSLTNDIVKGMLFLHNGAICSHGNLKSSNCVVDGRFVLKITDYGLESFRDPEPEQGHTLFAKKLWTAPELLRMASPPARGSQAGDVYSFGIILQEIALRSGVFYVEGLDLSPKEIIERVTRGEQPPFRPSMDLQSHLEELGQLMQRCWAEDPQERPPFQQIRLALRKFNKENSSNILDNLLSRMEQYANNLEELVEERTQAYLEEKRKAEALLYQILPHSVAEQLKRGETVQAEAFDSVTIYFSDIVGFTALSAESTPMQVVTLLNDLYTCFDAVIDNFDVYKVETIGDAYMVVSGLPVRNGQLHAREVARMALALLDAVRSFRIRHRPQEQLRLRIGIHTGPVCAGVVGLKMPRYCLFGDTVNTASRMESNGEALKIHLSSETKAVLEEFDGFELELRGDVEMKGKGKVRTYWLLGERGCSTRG
The assay is described as follows: Rat NPRA cGMP activity assay (HTRF) in HEK293 cells overexpressing NPRA. Format: cell-based. As to the method:
All sequences were verified by full-length sequencing performed by ACGT DNA Sequencing Services (Wheeling, IL). The target cDNA was cloned into pJTI R4 CMV-TO MCS pA vector and then co-transfected with pJT1R4 Int vector into Jump-in™ T-Rex™ HEK293 cells for mammalian inducible expression using Jump-in™ T-Rex™ HEK293 kit and Lipofectamine LTX and Plus Reagent following manufacturer's protocols, as briefly described below.
Jump-in™ T-Rex™ HEK293 cells were plated in a BioCOAT® poly-D-lysine coated 6-well plate (Becton Dickinson, cat no. 354413) at 1 million cells/well in 2 mL culture medium and incubated for 18 h at 37° C. and 5% CO2 to 50-70% confluence. A cDNA mix was made in a 50 mL tube by adding 1.5 μg target cDNA, 1.5 μg pJT1R4 Int vector, 3 μL Plus Reagent, and 300 μL Opti-MEM I sequentially into the tube. A reagent mix was made in a separate 50 mL tube by adding 7.5 μL Lipofectamine LTX into 300 μL Opti-MEM I. The mixtures were incubated for 5 min at room temperature. The cDNA mix was then transferred into the reagent mix, mixed well, and incubated for additional 30 min at room temperature. A 500 μL of cDNA/Lipofectamine complex was then transferred to the wells of the cell plate in which the culture medium was changed to 2 mL of transfection medium containing DMEM with 4.5 g/L D-glucose supplemented with 10% FBS-HI and 20 mM HEPES. Transfected cells were cultured for 48 h in an incubator at 37° C. and 5% CO2. A subclone or pool from each overexpressing cell line was maintained in culture medium with the addition of 2 mg/mL G418 sulfate for the clone selection based on its built-in resistance to G418 sulfate for at least 3 weeks with medium changed every 2-3 days.
NPRs were overexpressed in T-Rex™ HEK293 cells following the induction with 300 ng/mL tetracycline in culture medium for 48 h. Induced cell lines in an exponential growth phase were treated with 0.05% trypsin-EDTA for a few seconds at room temperature, harvested in cell medium containing FBS to neutralize the trypsin, counted, and cryopreserved at the density of 2 million cells/mL in cell preservation solution containing FBS-HI with 5% DMSO. Cryopreserved cells were stored at −80° C. for a few days prior to transferring to a liquid nitrogen tank. Induced cell lines were then used for suspension assays to measure the activity of polypeptides to stimulate cGMP production in cGMP assays or for the preparation of cell membranes to measure the binding activity of polypeptides in competitive radioligand binding assays, as described below.
Test polypeptides were added starting at 10 μM concentration and at 10-fold decreasing concentrations to obtain 8-point concentration-response curves (i.e., 10 μM to 1 pM). The quantity of cGMP generated was detected using HTRF® technology and normalized to maximum amount produced by 100 nM amidated rat ANP and the minimum amount produced by assay buffer. Detailed steps are outlined below.
Stock solutions of test polypeptides (2 mM) dissolved in DMSO were first diluted 100-fold in assay buffer containing HBSS with Ca^2+ and Mg^2+, 5 mM HEPES, 0.5 mM IBMX, and 0.1% BSA or 0.1% casein (pH 7.4). The polypeptides were further serially diluted in 1:10 dilution steps in assay buffer containing 0.1% BSA or 0.1% casein to generate 8-point 2× working stock solutions ranging from 20 μM to […].
A 10 μL cell suspension containing 4000 cells was plated in Costar® half-area white opaque 96-well plates (Corning, cat no. 3693). Then 10 μL of assay buffer (basal activity), 200 nM of amidated rat ANP (maximum activity) or 2× working stock solutions of test polypeptides were transferred into the plate. Final concentration of DMSO in each well was 0.5%. The plate was shaken for 15 sec and then incubated for 40 min at room temperature.
The cGMP generated was measured using cGMP kit following the manufacturer's directions, as described below.

Like-named read-outs stand apart in the source and are kept apart here. Numbered stars: 1 amine (or outer) side, 2 acyl side, 3 side chain; on linkers, the order of the positions; unused ones are H or OH. Bridge positions count the residues as written; N and C are the ends. Square brackets hold non-standard residues; d marks the D form. Peptide text beside a SMILES is read from it. * marks the point of attachment. C20 diacid = O=C(O)CCCCCCCCCCCCCCCCCCC(=O)*; γGlu = O=C(O)[C@H](CCC(=O)[*:2])N[*:1]; 4Pal = N[C@@H](Cc1ccncc1)C(=O)O

On to `CC[C@H](C)[C@@H]1NC(=O)[C@H](CCCNC(=N)N)NC(=O)[C@H](CC(=O)O)NC(=O)[C@H]([C@@H](C)CC)NC(=O)[C@H](CCCNC(=N)N)NC(=O)CNC(=O)CNC(=O)[C@H](Cc2ccccc2)NC(=O)[C@@H](NC(=O)[C@H](CO)NC(=O)[C@H](CO)NC(=O)[C@H](CCCNC(=N)N)NC(=O)[C@H](CCCNC(=N)N)NC(=O)[C@H](Cc2ccncc2)NC(=O)[C@H](CO)NC(=O)CNC(=O)[C@H](CCCCN)NC(=O)[C@H](CCC(=O)O)NC(=O)[C@H](CCCCN)NC(=O)[C@H](CCC(=O)O)NC(=O)[C@H](CCCCN)NC(=O)[C@H](CCC(=O)O)NC(=O)CC[C@H](NC(=O)CCCCCCCCCCCCCCCCCCC(=O)O)C(=O)O)CSSC[C@@H](C(=O)N2CCC[C@H]2C(=O)N[C@@H](CO)C(=O)N[C@@H](Cc2ccccc2)C(=O)N[C@@H](CCCNC(=N)N)C(=O)N[C@@H](Cc2c[nH]cn2)C(N)=O)NC(=O)CNC(=O)[C@H](CC(C)C)NC(=O)CNC(=O)[C@H](CO)NC(=O)[C@H](CCC(N)=O)NC(=O)[C@H](C)NC(=O)CNC1=O` [Example 22] ({C20 diacid-γGlu}-EKEKEKGS[4Pal]RRSSCFGGRIDRIGAQSGLGCPSFRH-NH2; disulfide 14-30), for which the EC50 (assay buffer with 0.1% BSA, read-out: cGMP Assay (EC50, pM) w/BSA rNPRA) turned out to be 192000 pM. For the molecule `CC[C@H](C)[C@@H]1NC(=O)[C@H](CCCNC(=N)N)NC(=O)[C@H](CC(=O)O)NC(=O)[C@H]([C@@H](C)CC)NC(=O)[C@H](CCCNC(=N)N)NC(=O)[C@H](CCCCN)NC(=O)CNC(=O)[C@H](Cc2ccccc2)NC(=O)[C@@H](NC(=O)[C@H](CO)NC(=O)[C@H](CO)NC(=O)[C@H](CCCNC(=N)N)NC(=O)CCNC(=O)[C@H](CCCCN)NC(=O)[C@H](CCC(=O)O)NC(=O)COCCOCCNC(=O)COCCOCCNC(=O)COCCOCCNC(=O)COCCOCCNC(=O)COCCOCCNC(=O)COCCOCCNC(=O)COCCOCCNC(=O)COCCOCCNC(=O)CNC(=O)[C@H](CCCCN)NC(=O)[C@H](CCC(=O)O)NC(=O)[C@H](CCCCN)NC(=O)[C@H](CCC(=O)O)NC(=O)[C@H](CCCCN)NC(=O)[C@H](CCC(=O)O)NC(=O)CC[C@H](NC(=O)CCCCCCCCCCCCCCCCCCC(=O)O)C(=O)O)CSCSC[C@@H](C(=O)N2CCC[C@H]2C(=O)N[C@@H](CO)C(=O)N[C@@H](Cc2ccccc2)C(=O)N[C@@H](CCCNC(=N)N)C(=O)N[C@@H](Cc2c[nH]cn2)C(=O)NCC(=O)N[C@@H](CO)C(=O)N2CCC[C@H]2C(=O)N[C@@H](CO)C(=O)N[C@@H](CO)C(=O)NCC(=O)N[C@@H](C)C(=O)N2CCC[C@H]2C(=O)N2CCC[C@H]2C(=O)N2CCC[C@H]2C(=O)N[C@@H](CO)C(N)=O)NC(=O)CNC(=O)[C@H](CC(C)C)NC(=O)CNC(=O)[C@H](CO)NC(=O)[C@H](CCC(N)=O)NC(=O)[C@H](Cc2c[nH]cn2)NC(=O)CNC1=O` [Example 120], the EC50 (assay buffer with 0.1% casein, read-out: cGMP Assay (EC50, pM) w/Casein rNPRA) turned out to be 25400 pM.

The values above are taken from patent US20240174727A1, “LONG-ACTING NATRIURETIC PEPTIDES AND USES THEREOF” (Eli Lilly and Company, priority 2022, published 2024).
